In patent publication US20080021026A1, “BENZOTHIOPHENE INHIBITORS OF RHO KINASE” (priority 2006, published 2008):
Each block holds one molecule with its values, some of them ahead of it.

Key:
[1] = molecular target: T1, recombinant N-terminal GST-tagged human Rho kinase 2 (ROCK2, amino acids 1-552) (Homo sapiens, UniProt O75116); assay: In vitro Rho kinase assay (luciferase-based ATP consumption), ROCK2; type: biochemical; conditions: recombinant GST-tagged human ROCK2, luciferase-based ATP consumption; read-out: ROCK2 IC50
T1 construct: ROCK2, amino acids 1-552; purchased Invitrogen Inc. PV3759
Outline: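 GST-ROCK2 (aa 1-552, 0.82 μg/ml) with 100 μg/ml S6 peptide and 3 µM ATP in Tris pH 7.5 buffer with MgCl2/CaCl2/EGTA/BSA, compound added just after reaction start, 2 h at 30 °C. Remaining ATP read by luciferase luminescence. Efficacy expressed as percentage of H-1152P positive control.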

[2] = molecular target: T2, recombinant N-terminal GST-tagged human Rho kinase 1 (ROCK1, amino acids 1-535) (Homo sapiens, UniProt Q13464); assay: In vitro Rho kinase assay (luciferase-based ATP consumption), ROCK1; type: biochemical; conditions: recombinant GST-tagged human ROCK1, luciferase-based ATP consumption; read-out: ROCK1 IC50
T2 construct: ROCK1, amino acids 1-535; purchased Invitrogen Inc. PV-3691
Outline: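 GST-ROCK1 (aa 1-535) at 0.82 μg/ml with 100 μg/ml S6 peptide and 3 µM ATP in Tris pH 7.5 buffer with MgCl2, CaCl2, EGTA, BSA; compound added after reaction start, 2 h at 30 °C. Remaining ATP read by luciferase luminescence; efficacy as percent of H-1152P positive control.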

T2 sequence (Q13464 1-535): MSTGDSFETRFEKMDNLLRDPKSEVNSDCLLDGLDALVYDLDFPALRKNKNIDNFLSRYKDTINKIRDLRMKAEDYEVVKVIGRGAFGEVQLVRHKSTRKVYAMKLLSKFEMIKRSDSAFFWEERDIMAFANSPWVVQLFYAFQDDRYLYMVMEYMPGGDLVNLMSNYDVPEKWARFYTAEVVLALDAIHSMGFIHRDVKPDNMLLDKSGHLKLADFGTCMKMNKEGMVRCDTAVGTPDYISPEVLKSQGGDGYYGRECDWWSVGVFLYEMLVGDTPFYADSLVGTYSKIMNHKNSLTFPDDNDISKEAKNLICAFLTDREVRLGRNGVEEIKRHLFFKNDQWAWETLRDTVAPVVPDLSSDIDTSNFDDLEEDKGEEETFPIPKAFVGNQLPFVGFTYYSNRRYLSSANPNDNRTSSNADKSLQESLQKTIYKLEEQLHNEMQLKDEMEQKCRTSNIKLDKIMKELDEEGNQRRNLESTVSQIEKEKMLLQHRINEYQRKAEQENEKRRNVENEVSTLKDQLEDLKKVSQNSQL
T1 sequence (O75116 1-552): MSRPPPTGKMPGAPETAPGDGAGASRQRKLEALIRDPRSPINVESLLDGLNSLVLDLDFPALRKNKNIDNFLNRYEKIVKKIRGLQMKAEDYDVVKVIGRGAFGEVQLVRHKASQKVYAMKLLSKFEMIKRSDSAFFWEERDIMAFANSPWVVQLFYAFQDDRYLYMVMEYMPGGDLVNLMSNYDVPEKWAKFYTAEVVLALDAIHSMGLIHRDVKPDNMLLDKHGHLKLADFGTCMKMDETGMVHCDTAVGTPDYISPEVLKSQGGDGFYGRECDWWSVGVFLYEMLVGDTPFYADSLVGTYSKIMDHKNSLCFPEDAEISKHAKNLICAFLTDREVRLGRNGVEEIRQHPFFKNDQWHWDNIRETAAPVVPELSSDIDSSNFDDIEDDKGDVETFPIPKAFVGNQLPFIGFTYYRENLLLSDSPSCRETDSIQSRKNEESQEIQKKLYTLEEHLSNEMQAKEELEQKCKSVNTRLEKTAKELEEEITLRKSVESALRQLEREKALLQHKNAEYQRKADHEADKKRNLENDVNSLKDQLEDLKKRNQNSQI

IC50 [1]: < 5 µM | IC50 [2]: > 5 µM
SMILES: COc1ccccc1CC(=O)NCc1ccc2sc(-c3ccnc(N)n3)c(C)c2c1 [Example 177, COc1ccccc1CC(═O)NCc2ccc3sc(c(C)c3c2)-c4ccnc(N)n4]

IC50 [1]: < 5 µM | IC50 [2]: < 5 µM
SMILES: Cc1c(-c2ccnc(N)n2)sc2ccc(CNC(=O)C(C)c3ccc(O)cc3)cc12 (stereo not drawn) [Example 178, CC(C(═O)NCc1ccc2sc(c(C)c2c1)-c3ccnc(N)n3)c4ccc(O)cc4]

IC50 [1]: < 5 µM | IC50 [2]: > 5 µM
SMILES: Cc1c(-c2ccnc(N)n2)sc2ccc(CNC(=O)c3ccccc3[N+](=O)[O-])cc12 [Example 179, Cc1c(sc2ccc(CNC(═O)c3ccccc3[N+]([O−])═O)cc12)-c4ccnc(N)n4]

IC50 [1]: < 5 µM | IC50 [2]: < 5 µM
SMILES: Cc1c(-c2ccnc(N)n2)sc2ccc(CNC(=O)c3cccc([N+](=O)[O-])c3)cc12 [Example 180, Cc1c(sc2ccc(CNC(═O)c3cccc(c3)[N+]([O−])═O)cc12)-c4ccnc(N)n4]

IC50 [1]: < 5 µM | IC50 [2]: < 5 µM
SMILES: COc1cccc(O)c1C(=O)NCc1ccc2sc(-c3ccnc(N)n3)c(C)c2c1 [Example 181, COc1cccc(O)c1C(═O)NCc2ccc3sc(c(C)c3c2)-c4ccnc(N)n4]

IC50 [1]: < 5 µM | IC50 [2]: > 5 µM
SMILES: COc1ccc(O)c(C(=O)NCc2ccc3sc(-c4ccnc(N)n4)c(C)c3c2)c1 [Example 182, COc1ccc(O)c(c1)C(═O)NCc2ccc3sc(c(C)c3c2)-c4ccnc(N)n4]

IC50 [1]: < 5 µM | IC50 [2]: > 5 µM
SMILES: COc1ccc(C(=O)NCc2ccc3sc(-c4ccnc(N)n4)c(C)c3c2)c(O)c1 [Example 183, COc1ccc(C(═O)NCc2ccc3sc(c(C)c3c2)-c4ccnc(N)n4)c(O)c1]

IC50 [1]: < 5 µM | IC50 [2]: > 5 µM
SMILES: Cc1c(-c2ccnc(N)n2)sc2ccc(CNC(=O)c3cc(O)c(O)c(O)c3)cc12 [Example 185, Cc1c(sc2ccc(CNC(═O)c3cc(O)c(O)c(O)c3)cc12)-c4ccnc(N)n4]

IC50 [1]: < 5 µM | IC50 [2]: < 5 µM
SMILES: Cc1c(-c2ccnc(N)n2)sc2ccc(CNC(=O)Cc3ccc(O)c(F)c3)cc12 [Example 186, Cc1c(sc2ccc(CNC(═O)Cc3ccc(O)c(F)c3)cc12)-c4ccnc(N)n4]

Further lines, the molecule ahead of its results:

SMILES: Cc1cccc(CCC(=O)NCc2ccc3sc(-c4ccnc(N)n4)c(C)c3c2)c1 [Example 168, Cc1cccc(CCC(═O)NCc2ccc3sc(c(C)c3c2)-c4ccnc(N)n4)c1]
IC50 [1]: < 5 µM | IC50 [2]: < 5 µM

SMILES: CCC(C(=O)NCc1ccc2sc(-c3ccnc(N)n3)c(C)c2c1)c1ccccc1 (stereo not drawn) [Example 169, CCC(C(═O)NCc1ccc2sc(c(C)c2c1)-c3ccnc(N)n3)c4ccccc4]
IC50 [1]: < 5 µM | IC50 [2]: < 5 µM

SMILES: Cc1cc(C)c(C(=O)NCc2ccc3sc(-c4ccnc(N)n4)c(C)c3c2)c(C)c1 [Example 170, Cc1cc(C)c(c(C)c1)C(═O)NCc2ccc3sc(c(C)c3c2)-c4ccnc(N)n4]
IC50 [1]: < 5 µM | IC50 [2]: > 5 µM

SMILES: CCCc1ccc(C(=O)NCc2ccc3sc(-c4ccnc(N)n4)c(C)c3c2)cc1 [Example 171, CCCc1ccc(cc1)C(═O)NCc2ccc3sc(c(C)c3c2)-c4ccnc(N)n4]
IC50 [1]: > 5 µM | IC50 [2]: > 5 µM

SMILES: Cc1c(-c2ccnc(N)n2)sc2ccc(CNC(=O)c3ccc4c(c3)OCO4)cc12 [Example 172, Cc1c(sc2ccc(CNC(═O)c3ccc4OCOc4c3)cc12)-c5ccnc(N)n5]
IC50 [1]: < 5 µM | IC50 [2]: < 5 µM

SMILES: Cc1c(-c2ccnc(N)n2)sc2ccc(CNC(=O)C=Cc3ccccc3F)cc12 [Example 173, Cc1c(sc2ccc(CNC(═O)C═Cc3ccccc3F)cc12)-c4ccnc(N)n4]
IC50 [1]: < 5 µM | IC50 [2]: > 5 µM

SMILES: CCOc1ccccc1C(=O)NCc1ccc2sc(-c3ccnc(N)n3)c(C)c2c1 [Example 174, CCOc1ccccc1C(═O)NCc2ccc3sc(c(C)c3c2)-c4ccnc(N)n4]
IC50 [1]: > 5 µM | IC50 [2]: > 5 µM

SMILES: Cc1ccccc1OCC(=O)NCc1ccc2sc(-c3ccnc(N)n3)c(C)c2c1 [Example 175, Cc1ccccc1OCC(═O)NCc2ccc3sc(c(C)c3c2)-c4ccnc(N)n4]
IC50 [1]: < 5 µM | IC50 [2]: > 5 µM

SMILES: Cc1c(-c2ccnc(N)n2)sc2ccc(CNC(=O)CCc3ccccc3O)cc12 [Example 176, Cc1c(sc2ccc(CNC(═O)CCc3ccccc3O)cc12)-c4ccnc(N)n4]
IC50 [1]: < 5 µM | IC50 [2]: > 5 µM
